Values of other authors, collected in US4975422A, “Angiogenesis inhibitor” (Kureha Kagaku Kogyo Kabushiki Kaisha, priority 1988, dated 1990).

Settings: oral; species not stated

COc1ccc2c(c1)c(CC(=O)O)c(C)n2C(=O)c1ccc(Cl)cc1 [indomethacin]
LD50: 50 mg/kg
